The results in this text go back to patent US9012414B2, “Cosmetic composition” (Guerlain, priority 2010, dated 2015).

Series [1] is described as follows: Solubility of the isolated vandaterosides. The class given is physicochemical.
Series [2] deals with mitochondrial dehydrogenases (complex I and complex II) of normal human keratinocytes (NHKs). In words: Stimulation of mitochondrial dehydrogenases on keratinocytes (XTT conversion to formazan). The following applies: treatment 48 h; for Stimulation of mitochondrial dehydrogenase activity / mitochondrial respiratory functions (XTT): NHKs without irradiation, 6.25 to 0.78 μg/ml. It is filed as cell-based. On the procedure:
Normal human keratinocytes (NHKs), isolated from eyelids of 37-year-old Caucasian women, are cultured at passage 3 in complemented (Invitrogen) Keratinocyte Serum Free Medium (KSFM, Invitrogen) supplemented with 5% of fetal calf serum (FCS, Invitrogen).
The NHKs are seeded in 96-well plates (Greiner Bio One) in a proportion of 1.10^4 cells/well, and then incubated at 37° C., 5% CO2 for 24 h. These cells are then treated, after UVB irradiation (60 mJ/cm^2 Vilbeit-Lourmat irradiator) or without irradiation, with serial dilutions of the VT1, VT2 and VT3 compounds (from 6.25 to 0.78 μg/ml) diluted in DMSO (sigma) 0.1% v/v final concentration. The plates are incubated at 37° C., 5% CO2. The untreated cells containing 0.1% v/v of DMSO are considered to be a negative control. After treatment for 48 h, the supernatants are removed and the XTT solution (Cell proliferation kit II, Roche Diagnostic) is deposited in each well in order to determine the overall activity of the mitochondrial dehydrogenases. This activity is evaluated by means of the conversion of an XTT tetrazolium salt to soluble formazan, via a cell mechanism which calls for the enzymatic activities of the glycolytic NAD(P)H dehydrogenase (complex I) and of succinate dehydrogenase (complex II), which are constituents of the mitochondrial respiratory chain. The amount of colored formazan (determined by reading optical density at 450 nm) is directly related, firstly, to the enzymatic activity of the mitochondrial dehydrogenases and, secondly, to the amount of metabolically active cells (Roehm et al. J. Immunol. Methods, 1991; 142: 257-265). […] The 96-well plates are read at 450 nm with a spectrofluorometer (SpectraFluor Plus, Tecan). […]
The results are expressed as mean of the optical densities (OD) at 450 nm and standardized relative to the total concentration of cell proteins (expressed in μg/ml), which makes it possible to measure only the activity of the dehydrogenases and to dispel with the impact of cell proliferation on the measurement of the ODs obtained. […]

Series [3] relates to keratinocyte differentiation proteins (transglutaminase, involucrin, desmoglein 1). In words: Stimulation of the differentiation of normal human keratinocytes (immunolabeling of differentiation proteins). It is filed as cell-based. To be noted: NHKs, 12 μg/ml, treatment 5 days. On the procedure:
The NHKs are cultured at passage 3 in complete KSFM medium in a T75 flask. At the pre-confluence stage, the NHKs are trypsinized and seeded in a proportion of 20 000 cells per well in 8-well Lab-Tek II culture systems (Nalge Nunc International), 4 wells per treatment condition. At 80% confluence, the cells are treated for 5 days with the various compositions of active agents (VT1, VT2, VT3, each at 12 μg/ml) until the post-confluence stage is reached. Vitactyl® clair (extract of Malva sylvestris, Silab) at 3% is used as a positive control.
The cells are rinsed with PBS (PBS Tablets, Invitrogen GIBCO) and then fixed with formalin (Formalin Solution, 10%, Neutral Buffered, Sigma) for 10 minutes.
After rinsing with PBS, the culture chambers are filled with a 0.1% Triton solution (Triton X-100, Sigma) for 10 minutes in order to permeabilize the membranes, and then rinsed twice with PBS. The cells are then covered with a solution of PBS/1% BSA (BSA, Sigma) for 30 minutes at ambient temperature. The PBS/BSA solution is removed from the slides by inclining them on absorbent paper. […]
For each condition, four photos are taken in green fluorescence (expression of the markers) with the ×20 objective. […]
The photos are analyzed using the Leica QWin image analysis software. A program is created in order to quantify the expression of these differentiation markers.

As to `O=C(CC(O)(Cc1ccc(O)cc1)C(=O)O)OCc1ccc(O[C@@H]2O[C@H](CO)C(O)[C@H](O)[C@H]2O)cc1` (stereo partly drawn) [VT1, 4-(4-β-D-glucopyranosyloxybenzyl)-(2R)-2-(p-hydroxybenzyl) malate], the “Solubility in MeOH and DMSO” value in series [1] was “soluble”. Moreover, the Solubility in water entry in series [1] (water) is “low solubility”. The “Stimulation of mitochondrial dehydrogenase activity / mitochondrial respiratory functions (XTT)” value in series [2] is “most effectively stimulate”. Besides, the “Stimulation of keratinocyte differentiation protein expression compared with the negative control” value in series [3] is on record as “most effective”.
Take `O=C(CC(O)(Cc1ccc(O)cc1)C(=O)OCc1ccc(O[C@@H]2O[C@H](CO)[C@@H](O)[C@H](O)[C@H]2O)cc1)OCc1ccc(O[C@@H]2O[C@H](CO)[C@@H](O)[C@H](O)[C@H]2O)cc1` (stereo partly drawn) [VT2, 1,4-bis(4-β-D-glucopyranosyloxybenzyl)-(2R)-2-(p-hydroxybenzyl) malate]: the “Solubility in MeOH and DMSO” value in series [1] is reported as “soluble”. In series [1] (water), the “Concentration at which a gel forms in water” value is on record as “approximately 10 mM” and the Solubility in water result is on record as “low solubility”. Besides, the “Stimulation of mitochondrial dehydrogenase activity / mitochondrial respiratory functions (XTT)” value in series [2] is given as “most effectively stimulate”. For the same compound, the “Stimulation of the activity of the dehydrogenases relative to the negative control” value in series [2] (NHKs, 0.78 μg/ml (1 μM), negative control DMSO 0.1%) was “+39%”. Moreover, in series [3], the “Stimulation of keratinocyte differentiation protein expression compared with the negative control” value is listed as “most effective”.
